Source: PubChem BioAssay (NCI)
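Five compound concentrations were applied to cells in 96-well plates for 48 hours; endpoints were derived by simple linear interpolation of the resulting dose-response curve. GI50 is the concentration that inhibits growth by half. TGI marks complete inhibition of growth.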

What was measured:
Experiment in all cases: growth of human tumour cells (NCI), 48 h
[1] = tested on: EKVX NSCLC
[2] = tested on: 786-0 renal
[3] = tested on: MDA-MB-231 breast
[4] = tested on: DU-145 prostate
[5] = tested on: HCT-15 colon
[6] = tested on: SNB-19 CNS
[7] = tested on: HCT-116 colon
[8] = tested on: T-47D breast
[9] = tested on: SF-539 CNS
[10] = tested on: CCRF-CEM leukemia
[11] = tested on: UACC-257 melanoma
[12] = tested on: SW-620 colon
[13] = tested on: NCI/ADR-RES ovarian
[14] = tested on: HCC-2998 colon
[15] = tested on: NCI-H522 lung
[16] = tested on: MDA-MB-435
[17] = tested on: OVCAR-3 ovarian
[18] = tested on: RPMI-8226 leukemia
[19] = tested on: HOP-92 NSCLC
[20] = tested on: SF-268 CNS
[21] = tested on: HL-60(TB) leukemia
[22] = tested on: SK-MEL-28 melanoma
[23] = tested on: OVCAR-5 ovarian
[24] = tested on: IGROV1 ovarian
[25] = tested on: SK-MEL-2 melanoma
[26] = tested on: TK-10 renal
[27] = tested on: MCF7 breast
[28] = tested on: NCI-H226 lung
[29] = tested on: K-562 leukemia
[30] = tested on: NCI-H23 lung
[31] = tested on: HS 578T breast
[32] = tested on: CAKI-1 renal
[33] = tested on: A549 NSCLC
[34] = tested on: M14 melanoma
[35] = tested on: UO-31 renal
[36] = tested on: SNB-75 CNS
[37] = tested on: OVCAR-4 ovarian
[38] = tested on: HOP-62 NSCLC
[39] = tested on: MALME-3M melanoma
[40] = tested on: LOX IMVI melanoma
[41] = tested on: SR leukemia
[42] = tested on: PC-3 prostate
[43] = tested on: RXF 393 renal
[44] = tested on: ACHN renal
[45] = tested on: UACC-62 melanoma
[46] = tested on: SN12C renal
[47] = tested on: SK-OV-3 ovarian
[48] = tested on: OVCAR-8 ovarian
[49] = tested on: U251 CNS
[50] = tested on: SF-295 CNS
[51] = tested on: SK-MEL-5 melanoma
[52] = tested on: NCI-H460 lung
[53] = tested on: A498 renal
[54] = tested on: COLO 205 colon
[55] = tested on: KM12 colon
[56] = tested on: BT-549 breast

Structure (SMILES): Oc1c(Cl)cc(Cl)c2ccc(Cn3cc(-c4cc(F)cc(F)c4)nn3)nc12
- GI50 [1]: 11.7 µM
- TGI [1]: 25.5 µM
- GI50 [2]: 2.09 µM
- TGI [2]: 4.84 µM
- GI50 [3]: 2.71 µM
- TGI [3]: 8.65 µM
- GI50 [4]: 2.14 µM
- TGI [4]: 4.6 µM
- GI50 [5]: 2.21 µM
- TGI [5]: 5.42 µM
- GI50 [6]: 11.9 µM
- TGI [6]: 25.1 µM
- GI50 [7]: 1.61 µM
- TGI [7]: 3.53 µM
- GI50 [8]: 2.27 µM
- TGI [8]: 7.17 µM
- GI50 [9]: 1.63 µM
- TGI [9]: 3.08 µM
- GI50 [10]: 0.832 µM
- TGI [10]: > 100 µM
- GI50 [11]: 1.76 µM
- TGI [11]: 4.83 µM
- GI50 [12]: 1.49 µM
- TGI [12]: 3.35 µM
- GI50 [13]: 24.1 µM
- TGI [13]: 85.3 µM
- GI50 [14]: 13.3 µM
- TGI [14]: 29.1 µM
- GI50 [15]: 1.72 µM
- TGI [15]: 4.83 µM
- GI50 [16]: 2.8 µM
- TGI [16]: 8.47 µM
- GI50 [17]: 1.66 µM
- TGI [17]: 3.2 µM
- GI50 [18]: 2.19 µM
- TGI [18]: 6.36 µM
- GI50 [19]: 1.63 µM
- TGI [19]: 4.37 µM
- GI50 [20]: 11.3 µM
- TGI [20]: 30.3 µM
- GI50 [21]: 2.08 µM
- TGI [21]: 5.78 µM
- GI50 [22]: 2.01 µM
- TGI [22]: 4.18 µM
- GI50 [23]: 4.01 µM
- TGI [23]: 15.4 µM
- GI50 [24]: 1.82 µM
- TGI [24]: 4.18 µM
- GI50 [25]: 5.19 µM
- TGI [25]: 20.2 µM
- GI50 [26]: 2.1 µM
- TGI [26]: 4.23 µM
- GI50 [27]: 1.54 µM
- TGI [27]: 3.62 µM
- GI50 [28]: 10 µM
- TGI [28]: 29 µM
- GI50 [29]: 1.09 µM
- TGI [29]: > 100 µM
- GI50 [30]: 3.5 µM
- TGI [30]: 12.8 µM
- GI50 [31]: 3.22 µM
- TGI [31]: 20 µM
- GI50 [32]: 1.78 µM
- TGI [32]: 4 µM
- GI50 [33]: 18.8 µM
- TGI [33]: 38.4 µM
- GI50 [34]: 2.02 µM
- TGI [34]: 4.92 µM
- GI50 [35]: 2.06 µM
- TGI [35]: 9.93 µM
- GI50 [36]: 2.07 µM
- TGI [36]: 11.8 µM
- GI50 [37]: 1.87 µM
- TGI [37]: 4.43 µM
- GI50 [38]: 17.4 µM
- TGI [38]: 34.9 µM
- GI50 [39]: 1.84 µM
- TGI [39]: 3.74 µM
- GI50 [40]: 1.31 µM
- TGI [40]: 2.68 µM
- GI50 [41]: 2.87 µM
- TGI [41]: > 100 µM
- GI50 [42]: 5.26 µM
- TGI [42]: 18.8 µM
- GI50 [43]: 1.36 µM
- TGI [43]: 2.99 µM
- GI50 [44]: 1.73 µM
- TGI [44]: 3.14 µM
- GI50 [45]: 3.39 µM
- TGI [45]: 14.4 µM
- GI50 [46]: 4.21 µM
- TGI [46]: 16.2 µM
- GI50 [47]: 17 µM
- TGI [47]: 31.9 µM
- GI50 [48]: 3.42 µM
- TGI [48]: 27.2 µM
- GI50 [49]: 7.38 µM
- TGI [49]: 21.2 µM
- GI50 [50]: 17.8 µM
- TGI [50]: 32.9 µM
- GI50 [51]: 4.1 µM
- TGI [51]: 14.9 µM
- GI50 [52]: 18.8 µM
- TGI [52]: 35.8 µM
- GI50 [53]: 5.78 µM
- TGI [53]: 19.6 µM
- GI50 [54]: 2.06 µM
- TGI [54]: 4.04 µM
- GI50 [55]: 16.3 µM
- TGI [55]: 32.1 µM
- GI50 [56]: 2.51 µM
- TGI [56]: 9.49 µM
